# Laboratory results taken from article PMC7933930, “Development of a small molecule that corrects misfolding and increases secretion of Z α1‐antitrypsin” (EMBO Molecular Medicine, 2021).
# Tests used:
# human hepatocytes = assay: Hepatocyte clearance, human; assay type: in vitro ADME
# Procedure: Williams E media supplemented with 2 mM L‐glutamine and 25 mM HEPES and test compound (final compound concentration 0.5 µM; final DMSO concentration 0.25% v/v) were preincubated at 37°C prior to the addition of a suspension of cryopreserved pooled hepatocytes (final cell density 0.5 × 10^6 viable cells/ml) to initiate the reaction. The final incubation volume was 500 µl. The reactions were stopped by transferring 50 µl of incubate to 100 µl acetonitrile containing internal standard at the appropriate time points (0, 5, 10, 20, 40 and 60 min, 0, 10, 20, 40, 60 and 120 min or 0, 20, 40, 60, 120 and 240 min). The control (lysed cells or vehicle) was incubated for 60, 120 or 240 min only. The termination plates were centrifuged at 2,500 rpm at 4°C for 30 min to precipitate the protein. Following protein precipitation, the sample supernatants were analysed by LC‐MS/MS. From a plot of loge peak area ratio (compound peak area/internal standard peak area) against time, the gradient of the line was determined and half‐life (t½) and intrinsic clearance (CLint) were calculated.
# α1‐antitrypsin = assay: SYPRO Orange thermal shift assay; assay type: biochemical, human; details: 50μM GSK716
# Excerpt: Polymerisation of α1‐antitrypsin involves transition through a transient intermediate state known as M*, that is readily populated by the Z variant (Dafforn et al, 1999; Knaupp et al, 2010). The M* conformational ensemble appears to be a distinct species between the native state conformation and that of the final polymer. One of the hallmarks of M* is its recognition by environment‐sensitive fluorescent reporter dyes. Thermal shift assays that make use of the dye SYPRO Orange report the stability of the protein native state against heat‐induced unfolding. […] Native state stability can also be probed by equilibrium unfolding using chemical denaturants, where a peak in bis‐ANS fluorescence corresponds with a maximally populated unfolding intermediate (James & Bottomley, 1998). […] The association of GSK716 induced a marked quenching and blue‐shift of the α1‐antitrypsin intrinsic tryptophan fluorescence spectrum (Fig 4D, inset). The rate of change in fluorescence during association of 10µM GSK716 was proportional to the propensity of α1‐antitrypsin mutants to form polymers in vivo: inert (M), mild (S), moderate (Baghdad) and severe (Z) α1‐antitrypsin (Fig 4D, top and bottom). […]
# [1] = tested on: Z α1‐antitrypsin secretion in CHO‐TET‐ON‐Z‐A1AT cells; assay: Secretion of Z α1‐antitrypsin from CHO‐TET‐ON‐Z‐A1AT cells (TR‐FRET); assay type: cell-based; details: n = 74, read-out: mean pEC50, secretion of Z α1‐antitrypsin (converted)
smiles,measurement,setting,value
CCC[C@@H](NC(=O)c1cccc2c1CC(=O)N2)[C@@H](O)c1cccc(F)c1C [GSK716],metabolic clearance in human hepatocytes,human hepatocytes,0.31 ml/min/g tissue
same,transition midpoint temperature,α1‐antitrypsin,marked increase
same,EC50,[1],631 nM
